Measurements published in paper PMC6390093, “Structural basis of small RNA hydrolysis by oligoribonuclease (CpsORN) from Colwellia psychrerythraea strain 34H” (Scientific Reports, 2019).
Blank lines part the entries; values can stand above or below the molecule they belong to.

How the values were obtained:
CpsORN [1] = biological target: T1, CpsORN (Colwellia psychrerythraea, UniProt Q47VZ4); assay: X-ray crystal structure, […] Å; format: binding; details: 5 mM uridine added, 1 mM MnCl2; active site with Mn2+; two molecules per site; text describes a phosphate on U2
T1 construct: gene orn

CpsORN [2] = biological target: T1, CpsORN; assay: spectrophotometric release of p-nitrophenolate at […] nm; format: biochemical; details: 3 mM substrate, 1 mM MnCl2, 50 mM Tris pH 8.0, 150 mM NaCl, 25 °C, 400 nM protein
CpsORN [3] = biological target: T2, CpsORN (Colwellia psychrerythraea, UniProt Q47VZ4, D163A); assay: X-ray crystal structure, […] Å; format: binding; details: 5 mM pNP-TMP, 1 mM MnCl2 added, no metal seen in active site; two molecules per site; inactive mutant
T2 construct: gene orn

[4] = biological target: the molecule itself; assay: AUC; sedimentation velocity, 0.5 mg/mL CpsORN in 20 mM Tris-HCl pH 8.0, 150 mM NaCl, 45,000 rpm, monitored at 280 nm, SEDFIT
[5] = biological target: the molecule itself; assay: crystal structure; four crystal forms (unliganded, pNP-TMP-bound, linked uridine-bound, separated uridine-bound), sitting- or hanging-drop vapour diffusion at 293 K

X-ray crystal structure, 2.2 Å (CpsORN [1]): 6A4F (separated uridine-bound CpsORN)
Molecule: O=c1ccn([C@@H]2O[C@H](COP(=O)(O)O)[C@@H](O)[C@H]2O)c(=O)[nH]1

Molecule: Cc1cn([C@H]2C[C@H](O)[C@@H](COP(=O)(O)Oc3ccc([N+](=O)[O-])cc3)O2)c(=O)[nH]c1=O [pNP-TMP]
spectrophotometric release of p-nitrophenolate at 420 nm (CpsORN [2]): CpsORN showed hydrolysis activity toward pNP-TMP in the presence of manganese or magnesium | X-ray crystal structure, 2.2 Å (CpsORN [3]): The pNP-TMP complexed D163A mutant CpsORN crystal contains two pNP-TMP molecules in the active site

B1: oligoribonuclease from Colwellia psychrerythraea strain 34H (CpsORN), wild-type (enzyme, UniProt Q47VZ4 1-181, looked up)
chain: MAGNDSNLIWLDLEMTGLEPVEDVILEIAIIITDSELNILAQGPIFAISQTDDVLDNMNPWCIEHHGKSGLTQRCRDSEVSLAHATKESLAFVQEWVPQGKSPMCGNSIGQDRRFINKYMPDFEDHFHYRNLDVSTIKELAKRWKPEVLESVVKTGAHLALDDIKESIAELKVYRELFFKL
notes: oligoribonuclease (CpsORN) of Colwellia psychrerythraea strain 34H, full-length gene orn, residues 1-181; pET-28a construct with a thrombin site after the His tag; also called unliganded CpsORN; source: E. coli BL21(DE3), purified (Ni-NTA, thrombin cleavage, Superdex 200); not shown: His6, N-terminal, cleaved
stoichiometry N [4]: 2

B2: CpsORN D163A inactive mutant (enzyme, Colwellia psychrerythraea strain 34H, UniProt Q47VZ4 1-181, looked up)
chain: MAGNDSNLIWLDLEMTGLEPVEDVILEIAIIITDSELNILAQGPIFAISQTDDVLDNMNPWCIEHHGKSGLTQRCRDSEVSLAHATKESLAFVQEWVPQGKSPMCGNSIGQDRRFINKYMPDFEDHFHYRNLDVSTIKELAKRWKPEVLESVVKTGAHLALDAIKESIAELKVYRELFFKL
notes: oligoribonuclease (CpsORN) of Colwellia psychrerythraea strain 34H, full-length gene orn with Asp163 replaced by alanine; Made from the wild-type plasmid and purified by the same procedure as the wild type; also called D163A mutant; source: E. coli BL21(DE3), purified (Ni-NTA, thrombin cleavage, Superdex 200); not shown: His6, N-terminal, cleaved
binding result [5]: binds
